Source: ChEMBL document CHEMBL2150993, “Substituted thiazoles VII. Synthesis and antitumor activity of certain 2-(substituted amino)-4-phenyl-1,3-thiazole analogs” (2012)

Experiments:
Type in all cases: functional
Conditions in all cases: at 10 µM
[1] = system: TK-10; test: Growth inhibition of human TK10 cells after 48 hrs by cell counting analysis
[2] = system: OVCAR-3; test: Growth inhibition of human OVCAR3 cells after 48 hrs by cell counting analysis
[3] = system: K562; test: Growth inhibition of human K562 cells after 48 hrs by cell counting analysis
[4] = Growth inhibition of human NCI-ADR-RES cells after 48 hrs by cell counting analysis
[5] = system: HT-29; test: Growth inhibition of human HT-29 cells after 48 hrs by cell counting analysis
[6] = system: OVCAR-8; test: Growth inhibition of human OVCAR8 cells after 48 hrs by cell counting analysis
[7] = system: SR; test: Growth inhibition of human SR cells after 48 hrs by cell counting analysis
[8] = system: EKVX; test: Growth inhibition of human EKVX cells after 48 hrs by cell counting analysis
[9] = system: NCI-H226; test: Growth inhibition of human NCI-H226 cells after 48 hrs by cell counting analysis
[10] = system: A549; test: Growth inhibition of human A549 cells after 48 hrs by cell counting analysis
[11] = system: HOP-92; test: Growth inhibition of human HOP92 cells after 48 hrs by cell counting analysis
[12] = system: T47D; test: Growth inhibition of human T47D cells after 48 hrs by cell counting analysis
[13] = system: SNB-75; test: Growth inhibition of human SNB75 cells after 48 hrs by cell counting analysis
[14] = system: OVCAR-4; test: Growth inhibition of human OVCAR4 cells after 48 hrs by cell counting analysis
[15] = system: MDA-MB-231; test: Growth inhibition of human MDA-MB-231 cells after 48 hrs by cell counting analysis
[16] = system: SK-MEL-2; test: Growth inhibition of human SK-MEL-2 cells after 48 hrs by cell counting analysis
[17] = system: SNB-19; test: Growth inhibition of human SNB19 cells after 48 hrs by cell counting analysis
[18] = Growth inhibition of human NCI-322M cells after 48 hrs by cell counting analysis
[19] = system: MCF7; test: Growth inhibition of human MCF7 cells after 48 hrs by cell counting analysis
[20] = system: MDA-MB-468; test: Growth inhibition of human MDA-MB-468 cells after 48 hrs by cell counting analysis
[21] = system: NCI-H522; test: Growth inhibition of human NCI-H522 cells after 48 hrs by cell counting analysis
[22] = system: M14; test: Growth inhibition of human M14 cells after 48 hrs by cell counting analysis
[23] = system: LOX IMVI; test: Growth inhibition of human LOXIMVI cells after 48 hrs by cell counting analysis
[24] = system: MOLT-4; test: Growth inhibition of human MOLT4 cells after 48 hrs by cell counting analysis
[25] = system: RXF 393; test: Growth inhibition of human RXF393 cells after 48 hrs by cell counting analysis
[26] = system: SW-620; test: Growth inhibition of human SW620 cells after 48 hrs by cell counting analysis
[27] = system: HCC 2998; test: Growth inhibition of human HCC2998 cells after 48 hrs by cell counting analysis
[28] = system: SK-OV-3; test: Growth inhibition of human SKOV3 cells after 48 hrs by cell counting analysis
[29] = system: SK-MEL-28; test: Growth inhibition of human SK-MEL-28 cells after 48 hrs by cell counting analysis
[30] = system: MDA-MB-435; test: Growth inhibition of human MDA-MB-435 cells after 48 hrs by cell counting analysis
[31] = system: SF-295; test: Growth inhibition of human SF295 cells after 48 hrs by cell counting analysis
[32] = system: RPMI-8226; test: Growth inhibition of human RPMI8226 cells after 48 hrs by cell counting analysis
[33] = system: HL-60; test: Growth inhibition of human HL60 cells after 48 hrs by cell counting analysis
[34] = system: CCRF-CEM; test: Growth inhibition of human CCRF-CEM cells after 48 hrs by cell counting analysis
[35] = system: UO-31; test: Growth inhibition of human UO31 cells after 48 hrs by cell counting analysis
[36] = system: OVCAR-5; test: Growth inhibition of human OVCAR5 cells after 48 hrs by cell counting analysis
[37] = system: SF-268; test: Growth inhibition of human SF268 cells after 48 hrs by cell counting analysis
[38] = system: IGROV-1; test: Growth inhibition of human IGROV1 cells after 48 hrs by cell counting analysis
[39] = system: SF-539; test: Growth inhibition of human SF539 cells after 48 hrs by cell counting analysis
[40] = system: NCI-H23; test: Growth inhibition of human NCI-H23 cells after 48 hrs by cell counting analysis
[41] = system: ACHN; test: Growth inhibition of human ACHN cells after 48 hrs by cell counting analysis
[42] = system: Malme-3M; test: Growth inhibition of human MALME-3M cells after 48 hrs by cell counting analysis
[43] = system: BT-549; test: Growth inhibition of human BT549 cells after 48 hrs by cell counting analysis
[44] = system: HCT-116; test: Growth inhibition of human HCT116 cells after 48 hrs by cell counting analysis
[45] = system: PC-3; test: Growth inhibition of human PC3 cells after 48 hrs by cell counting analysis
[46] = system: HOP-62; test: Growth inhibition of human HOP62 cells after 48 hrs by cell counting analysis
[47] = system: U-251; test: Growth inhibition of human U251 cells after 48 hrs by cell counting analysis
[48] = system: UACC-257; test: Growth inhibition of human UACC257 cells after 48 hrs by cell counting analysis
[49] = system: SN12C; test: Growth inhibition of human SN12C cells after 48 hrs by cell counting analysis
[50] = system: UACC-62; test: Growth inhibition of human UACC62 cells after 48 hrs by cell counting analysis
[51] = system: KM12; test: Growth inhibition of human KM12 cells after 48 hrs by cell counting analysis
[52] = system: SK-MEL-5; test: Growth inhibition of human SK-MEL-5 cells after 48 hrs by cell counting analysis
[53] = system: CAKI-1; test: Growth inhibition of human Caki1 cells after 48 hrs by cell counting analysis
[54] = system: HCT-15; test: Growth inhibition of human HCT15 cells after 48 hrs by cell counting analysis

In the case of `CN1CCN(CCC(=O)Nc2nc(-c3ccc(Cl)cc3)cs2)CC1`, the “growth inhibition (GI)” value [1] is reported as 20.2%, the “growth inhibition (GI)” value [2] is reported as <10% and the “growth inhibition (GI)” value [3] is reported as 22.4%. For the same compound, the “growth inhibition (GI)” value [4] was 21.9%, the “growth inhibition (GI)” value [5] was 23.8% and the “growth inhibition (GI)” value [6] was 15.6%. For the same compound, the “growth inhibition (GI)” value [7] was <10%, the “growth inhibition (GI)” value [8] was 11.9% and the “growth inhibition (GI)” value [9] was 28%. For the same compound, the “growth inhibition (GI)” value [10] was <10%, the “growth inhibition (GI)” value [11] was 42.2% and the “growth inhibition (GI)” value [12] was 28.8%. The “growth inhibition (GI)” value [13] was 26.8%, the “growth inhibition (GI)” value [14] was <10% and the “growth inhibition (GI)” value [15] was 25.6%. For the same compound, the “growth inhibition (GI)” value [16] was <10%, the “growth inhibition (GI)” value [17] was 19.7% and the “growth inhibition (GI)” value [18] was <10%. For the same compound, the “growth inhibition (GI)” value [19] was 28%, the “growth inhibition (GI)” value [20] was 62.8% and the “growth inhibition (GI)” value [21] was 31.1%. For the same compound, the “growth inhibition (GI)” value [22] was 15.2%, the “growth inhibition (GI)” value [23] was 12.8% and the “growth inhibition (GI)” value [24] was 51.8%. For the same compound, the “growth inhibition (GI)” value [25] was 47.4%, the “growth inhibition (GI)” value [26] was <10% and the “growth inhibition (GI)” value [27] was 13.3%. The “growth inhibition (GI)” value [28] was <10%, the “growth inhibition (GI)” value [29] was <10% and the “growth inhibition (GI)” value [30] was 15.4%. The “growth inhibition (GI)” value [31] was <10%, the “growth inhibition (GI)” value [32] was 17.6% and the “growth inhibition (GI)” value [33] was 20.6%. For the same compound, the “growth inhibition (GI)” value [34] was 18.3%, the “growth inhibition (GI)” value [35] was 48.6% and the “growth inhibition (GI)” value [36] was <10%. For the same compound, the “growth inhibition (GI)” value [37] was 14.2%, the “growth inhibition (GI)” value [38] was 18.4% and the “growth inhibition (GI)” value [39] was 14.8%. For the same compound, the “growth inhibition (GI)” value [40] was 11.2%, the “growth inhibition (GI)” value [41] was <10% and the “growth inhibition (GI)” value [42] was 15.4%. The “growth inhibition (GI)” value [43] was 29.1%, the “growth inhibition (GI)” value [44] was 13.3% and the “growth inhibition (GI)” value [45] was 15.3%. For the same compound, the “growth inhibition (GI)” value [46] was 19.7%, the “growth inhibition (GI)” value [47] was 16.5% and the “growth inhibition (GI)” value [48] was <10%. For the same compound, the “growth inhibition (GI)” value [49] was 32.9%, the “growth inhibition (GI)” value [50] was 15% and the “growth inhibition (GI)” value [51] was <10%. The “growth inhibition (GI)” value [52] was 46.1%, the “growth inhibition (GI)” value [53] was 24.2% and the “growth inhibition (GI)” value [54] was 18.1%.
With `O=C(CCN1CCN(c2ccccc2)CC1)Nc1nc(-c2ccc(Cl)cc2)cs1` the “growth inhibition (GI)” value [1] was <10%, the “growth inhibition (GI)” value [2] was <10% and the “growth inhibition (GI)” value [3] was 21.6%. The “growth inhibition (GI)” value [4] was <10%, the “growth inhibition (GI)” value [5] was 18.6% and the “growth inhibition (GI)” value [6] was <10%. The “growth inhibition (GI)” value [7] was <10%, the “growth inhibition (GI)” value [8] was <10% and the “growth inhibition (GI)” value [9] was 14.1%. The “growth inhibition (GI)” value [10] was 12%, the “growth inhibition (GI)” value [11] was 23.7% and the “growth inhibition (GI)” value [12] was <10%. For the same compound, the “growth inhibition (GI)” value [13] was 14.9%, the “growth inhibition (GI)” value [14] was <10% and the “growth inhibition (GI)” value [15] was <10%. For the same compound, the “growth inhibition (GI)” value [16] was <10%, the “growth inhibition (GI)” value [17] was <10% and the “growth inhibition (GI)” value [18] was 27.8%. The “growth inhibition (GI)” value [19] was 10.9%, the “growth inhibition (GI)” value [20] was <10% and the “growth inhibition (GI)” value [21] was 18.7%. For the same compound, the “growth inhibition (GI)” value [22] was <10%, the “growth inhibition (GI)” value [23] was <10% and the “growth inhibition (GI)” value [24] was 36.3%. For the same compound, the “growth inhibition (GI)” value [25] was <10%, the “growth inhibition (GI)” value [26] was <10% and the “growth inhibition (GI)” value [27] was <10%. The “growth inhibition (GI)” value [28] was <10%, the “growth inhibition (GI)” value [29] was <10% and the “growth inhibition (GI)” value [30] was <10%. For the same compound, the “growth inhibition (GI)” value [31] was 24.2%, the “growth inhibition (GI)” value [32] was 25.4% and the “growth inhibition (GI)” value [33] was 19.6%. For the same compound, the “growth inhibition (GI)” value [34] was 16.3%, the “growth inhibition (GI)” value [35] was 38.6% and the “growth inhibition (GI)” value [36] was <10%. For the same compound, the “growth inhibition (GI)” value [37] was <10%, the “growth inhibition (GI)” value [38] was <10% and the “growth inhibition (GI)” value [39] was <10%. The “growth inhibition (GI)” value [40] was 13.7%, the “growth inhibition (GI)” value [41] was <10% and the “growth inhibition (GI)” value [42] was <10%. For the same compound, the “growth inhibition (GI)” value [43] was <10%, the “growth inhibition (GI)” value [44] was 19.4% and the “growth inhibition (GI)” value [45] was 12%. The “growth inhibition (GI)” value [46] was <10%, the “growth inhibition (GI)” value [47] was <10% and the “growth inhibition (GI)” value [48] was <10%. The “growth inhibition (GI)” value [49] was 11.9%, the “growth inhibition (GI)” value [50] was 20.5% and the “growth inhibition (GI)” value [51] was <10%. The “growth inhibition (GI)” value [52] was 10.1%, the “growth inhibition (GI)” value [53] was <10% and the “growth inhibition (GI)” value [54] was <10%.
